US10781229B2, “Tris- or neopentyl glycol-based amphiphiles and uses thereof” (Industry-University Cooperation Foundation Hanyang …, priority 2015, dated 2020)

Columns and labels:
[1] = Hydrodynamic radius and size distribution of micelles by dynamic light scattering (DLS); type: physicochemical
Method: A method of measuring the radius of a micelle is not specifically limited and may be any method generally known in the art. For example, the radius may be measured by a dynamic light scattering (DLS) experiment.
In particular, critical micellar concentrations (CMCs) were measured using hydrophobic fluorescence staining and diphenylhexatriene (DPH), and hydrodynamic radii (Rh) of micelles formed of each material were measured by a dynamic light scattering (DLS) experiment. Measured results are compared to values of DDM as an existing amphipathic molecule (detergent).
Meanwhile, size distributions of the micelles formed of TDTs and NDTs were measured using DLS. Results are illustrated in FIG. 5. TDTs or NDTs were respectively used in an amount of 0.5% by weight. As a result, micelles of TDTs or NDTs were measured as forming a single community.

[2] = biological target: T1, melibiose permease (MelB), MelBSt (Salmonella typhimurium, UniProt P30878); assay: MelB extraction efficiency and stability by SDS-PAGE and western immunoblotting; conditions: 1.5% by weight, 55° C., 90 minutes
T1 construct: made in house; host or cells: 'Salmonella typhimurium DW2 cell (melB and lacZY)', plasmid pK95AHB/WT MelBSt/CH10
Method: Experiments to measure the extraction efficiency and structural stability of a Salmonella typhimurium melibiose permease (MelB) protein by TDTs or NDTs were conducted. The MelB protein was extracted using TDTs, NDTs, or DDM and then the amounts and structures of extracted proteins were quantitatively analyzed by SDS-PAGE and western immunoblotting. The concentrations of the used amphipathic molecules were 1.5% by weight. Protein extraction was carried out at four temperatures (0, 45, 55 or 65° C.) for 90 minutes to simultaneously evaluate the protein extraction efficiency and stabilization ability of the amphipathic molecules.
In particular, in accordance with a method disclosed in a paper (P. S. Chae, et al., Chemistry. 2013, 19, 15645-15651) published by the present inventors, a protein (MelBSt) was produced using a pK95AHB/WT MelBSt/CH10 plasmid and a Salmonella typhimurium DW2 cell (melB and lacZY) to encode wild-type MelB having a 10-His tag at a C-terminal. In accordance with a method disclosed in a paper (Nat. Commun. 2014, 5, 3009) published by A. S. Ethayathulla, et al., cell proliferation and membrane preparation was carried out. Protein analysis was performed using a Micro BCA kit (Thermo Scientific, Rockford, Ill.). So as to measure the solubilization/stability of MelBSt, a membrane sample including MelBSt (final protein concentration of 10 mg/mL) was mixed with a solubilization buffer (20 mM sodium phosphate, pH 7.5, 200 mM NaCl, 10% glycerol, and 20 mM melibiose) and 1.5% (w/v) DDM, TDTs or NDTs. An extracted product was incubated at four temperatures (0, 45, 55 and 65° C.) for 90 minutes. Ultracentrifugation was carried out for 45 minutes at 4° C. and 355,590 g by means of a Beckman Optima™ MAX ultracentrifuge and a TLA-100 rotor. Subsequently, 20 μg of a protein was separated by SDS-16% PAGE and then subjected to immunoblotting with a Penta-His-HRP antibody (Qiagen, Germantown, Md.).

[3] = biological target: T2, MelBSt (Salmonella typhimurium, UniProt P30878); assay: Trp to D2G FRET reversal by melibiose, functional state of solubilized MelBSt; type: biochemical; conditions: 1.0% by weight, solubilized at 23° C. for 30 minutes
T2 construct: made in house; host or cells: E. coli DW2, right-side-out membrane vesicles
Method: (§1) So as to investigate functional states of MelB proteins dissolved by amphipathic molecules, Førster resonance energy transfer (FRET) to 2′-(N-dansyl)aminoalkyl-1-thio-β-D-galactopyranoside (D^2G), as a fluorescence ligand, was measured in tryptophan (Trp). […] However, if a protein dissolved by an amphipathic molecule has activity, melibiose substitutes for the coupled D^2G molecule upon addition of the melibiose and thus energy transfer no longer occurs, thereby decreasing fluorescence intensity. Accordingly, the activity of the MelB protein dissolved in DDM or NDT-C11 can be determined by whether reversal of D^2G FRET occurs due to melibiose in Trp. Therefore, the FRET measurement method is an efficient method to measure the membrane protein structural stabilization ability of an amphipathic molecule.
(§2) In particular, a right-side-out (RSO) membrane vesicle was prepared by osmotic lysis of an E. coli DW2 cell containing MelBSt or MelBEc and re-suspended with 100 mM KPi (pH 7.5), followed by storing at −80° C. D^2G was provided by H. Ronald Kaback and Gerard Leblanc. A protein concentration of an RSO membrane vesicle in 100 mM KPi, pH 7.5, and 50 mM NaCl was 1 mg/ml concentration. […] An emission wavelength of MelBEc was measured at 465 nm and an emission wavelength of MelBSt was measured at 490 nm. […] Accordingly, fluorescence intensity is decreased. […]

[4] = biological target: T3, MelBEc (Escherichia coli, UniProt P02921); assay: Trp to D2G FRET reversal by melibiose, functional state of solubilized MelBEc; type: biochemical; conditions: 1.0% by weight, solubilized at 23° C. for 30 minutes
T3 construct: made in house; host or cells: E. coli DW2, right-side-out membrane vesicles
Method: as §1, §2

T3 sequence (P02921 whole entry): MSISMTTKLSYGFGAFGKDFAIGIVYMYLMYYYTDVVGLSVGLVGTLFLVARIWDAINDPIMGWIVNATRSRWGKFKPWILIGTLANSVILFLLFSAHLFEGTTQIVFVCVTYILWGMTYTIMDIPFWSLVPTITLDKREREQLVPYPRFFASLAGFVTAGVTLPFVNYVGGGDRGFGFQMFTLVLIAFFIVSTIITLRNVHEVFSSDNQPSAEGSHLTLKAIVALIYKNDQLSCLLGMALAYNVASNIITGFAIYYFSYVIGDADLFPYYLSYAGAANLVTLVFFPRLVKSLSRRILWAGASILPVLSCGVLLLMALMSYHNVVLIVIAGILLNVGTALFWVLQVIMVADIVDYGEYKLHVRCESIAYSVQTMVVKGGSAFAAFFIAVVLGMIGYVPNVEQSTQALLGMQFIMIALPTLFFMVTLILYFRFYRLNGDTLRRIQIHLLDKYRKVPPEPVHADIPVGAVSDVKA
T2 sequence (P30878 whole entry): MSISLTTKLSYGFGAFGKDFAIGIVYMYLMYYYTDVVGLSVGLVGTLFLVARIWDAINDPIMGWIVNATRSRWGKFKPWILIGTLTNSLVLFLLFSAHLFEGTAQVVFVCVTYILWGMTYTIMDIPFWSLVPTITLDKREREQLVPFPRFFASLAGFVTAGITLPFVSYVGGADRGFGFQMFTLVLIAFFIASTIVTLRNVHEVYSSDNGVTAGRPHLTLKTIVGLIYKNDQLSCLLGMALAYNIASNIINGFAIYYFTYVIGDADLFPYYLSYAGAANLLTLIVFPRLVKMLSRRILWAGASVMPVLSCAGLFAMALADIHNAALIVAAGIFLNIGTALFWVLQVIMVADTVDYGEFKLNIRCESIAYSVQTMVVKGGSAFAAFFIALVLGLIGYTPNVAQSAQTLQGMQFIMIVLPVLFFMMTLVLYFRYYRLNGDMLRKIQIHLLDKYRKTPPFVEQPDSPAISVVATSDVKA
T1 sequence (P30878 whole entry): as above

Q: For CCCCCCCCCCCCOC1OC(CO)C(OC2OC(CO)C(O)C(O)C2O)C(O)C1O [DDM, n-dodecyl-β-D-maltopyranoside, reference compound], which “Rh (hydrodynamic radius of micelles)” value [1] is on record?
A: 3.4 ± 0.0 nm

Q: What about the “MelB dissolved / solubilization ability” value [2] of the same molecule?
A: hardly detected

Q: What about the “Functional state of solubilized MelBSt (melibiose binding, FRET)” value [3] of the same molecule?
A: enable production of functional MelBSt proteins

Q: What about the “Functional state of solubilized MelBEc (melibiose binding, FRET)” value [4] of the same molecule?
A: completely lost

Q: Which “Rh (hydrodynamic radius of micelles)” value [1] does the source give for CCCCCCCCCCCC(CCCCCCCCCCC)COCC(CO[C@@H]1OC(CO)[C@@H](O)C(O)C1O)(CO[C@@H]1OC(CO)[C@@H](O)C(O)C1O)CO[C@@H]1OC(CO)[C@@H](O)C(O)C1O (some centres unmarked) [NDT-C11] here?
A: 3.5 ± 0.0 nm

Q: What about the “MelB dissolved / solubilization ability” value [2] of the same molecule?
A: most excellent

Q: And the “Functional state of solubilized MelBSt (melibiose binding, FRET)” value [3]?
A: enable production of functional MelBSt proteins

Q: And the “Functional state of solubilized MelBEc (melibiose binding, FRET)” value [4]?
A: effectively maintained
